# Data: patent publication US20230371508A1, “COMPOSITIONS AND METHODS FOR KILLING INSECT AND NON-INSECT PESTS” (The United States of America, as represented by the …, priority 2018, published 2023)
# “Also recorded” adds a separate entry of the source. Where two headings read alike, the source gives them in different places.
# What was measured:
# [1] = system: H. halys eggs; assay: Ovicidal toxicity, direct spray on eggs; type: in vivo; details: eggs sprayed, 10 days
# From the text: (§1) Ovicidal toxicities of MB and some compounds of formula 1: The aqueous solutions of one of the compounds of formula 1 with designated concentrations with different concentrations of active ingredient (AI) were separately stored in glass spray bottles according to a published procedure (Cuthbertson 2014). The eggs (10 for H. halys and 100 for P. xylostella) were laid on filter papers in Petri dishes. Different aqueous insecticidal solutions were sprayed on the surfaces of different eggs three times (˜0.5 mL) to completely cover the treatment areas. Then the Petri dishes were covered with lids and maintained in a fume hood for 10 days. The Petri dishes were then inspected for presence of nymph/larvae development or numbers of unhatched eggs.
# [2] = Release rate (evaporation from cotton ball in tube); type: physicochemical; details: room temperature, hood air flow 129 FPM
# Description: Release rate: Release rate tests of selective compounds were carried out in the laboratory. 1 mL of each compound was loaded on a cotton ball in a polypropylene flex tube (1.5 mL Eppendorf micro-centrifuge tube, VWR International, Radnor, PA). The tubes were hung in the hood with air flow of 129 FPM. At 2 pm on each weekday, the tubes were weighed and recorded (Zhang, A., et al., Environ. Entomol., 37: 719-724 (2008)). Each treatment was replicated 5 times.
# [3] = system: S. invicta workers; assay: Fumigant toxicity in sealed glass flask; type: in vivo, Solenopsis invicta; details: for fumigant toxicity against S. invicta (in words): in vivo; for LC50 / mortality at 1.43 µg/mL: Solenopsis invicta
# Description: A 250-ml glass flask (the whole volume is 280 ml) was used to house worker ants in fumigant toxicity bioassays. Two micro-liter of acetone solution of the tested compound was applied onto a paraffin film, which was used to seal the flask with ants. The treated spot of the paraffin film faced the inside of the flask. The upper part of the flask was coated with Fluon® to prevent ants from contacting the test material. Two experiments were conducted. […] LC50 value was established using 5 dosages. Each dosage was replicated 3 times for each of 3 colonies. Each replicate consisted of 15 to 26 ants. Ants that could not stand by themselves were considered dead. Dead ants were counted after 24 h.
# [4] = system: H. halys nymphs; assay: Nymphicidal toxicity, treated filter paper in glass vial; type: in vivo; details: for LC50 (95% CL): 24 hr
# Description: Toxicities of MB, some compounds of formula 1, and commercial pesticides on H. halys nymphs: The bioassays were carried out in glass vials (20 mL), following a published procedure (Nielsen, A. L., et al., J. Econ. Entomol., 101: 1439-1442 (2008)). Filter paper was cut into round shape pieces (2.4 cm diameter). 50 μL acetone solution of one derivative or commercial pesticide with different concentrations was loaded onto the filter paper evenly, and the filter paper was dried for 1 min and then put into the bottom of vial. A small piece of green bean was put on the filter paper in the vial as food source. Different stages of H. halys nymphs were introduced into the vial and capped with a cotton ball. For each stage, 30 nymphs were used for each amount. For the nymphs of the first instar, 10 nymphs were put into 1 vial. For the nymphs of the second and third instar, 5 nymphs were put into 1 vial. For the nymphs of the fourth instar, 3 nymphs were put into 1 vial. For the nymphs of the fifth instar, 2 nymphs were put into 1 vial. The mortality was assessed after 24 hr.
# [5] = system: S. invicta workers; details: for increase of mean mortality compared with MB / mean mortality: dose 77.9 μg/ant, 24 h
# Description: Fire ant bioassays were conducted in USDA, ARS Stoneville laboratory at 25° C., 80% R.H. with a 12:12 (L:D) photoperiod. Contact toxicities of MB and some compounds of formula 1 against fire ants: Topical application was used for contact toxicity bioassay. Only large workers were used for a purpose of relatively uniform body weight and ease of handling. For all compounds, acetone was used as a solvent. The solution was applied using a 0.779 μl capillary tube. Two experiments were conducted for assessing contact toxicity. […] In order to investigate the structure-activity relationship, LD50 values were also established for MB and EB. […] For each LD50 value, 5 doses of benzoates were used. Each dose was replicated 3 times. Each replicate consisted of 13 to 18 ants. Treated ants were placed in a 30-ml capped cup and dead ants were counted after 24 h.
# [6] = system: D. suzukii; assay: Insecticidal activity on larvae and pupae development and adult emergence in pre-infested blueberries (dip); type: in vivo, Drosophila suzukii; details: for Adults / Larvae / Pupae: pre-infested berries soaked 2 min in 1% solution, assessed after 10 days at room temperature, mean of three replicates (standard error)
# Description: Impacts of MB and other compounds on D. suzukii control: To investigate the acute toxicity of some compounds of formula 1 against D. suzukii, a published procedure was followed (Cuthbertson, A. G. S., et al., Insects, 5: 488-498 (2014)). First, mixed-sex adults D. suzukii (100) were introduced into a plastic cage (30×30×30 cm) and reared on blueberries (100) for 4 days. After that, the infested blueberries were taken out from the cage. Half of the blueberries (50) were dipped in 100 mL aqueous emulsion of each compound listed in Table 1 at 1% concentration for 2 min as treatment, while the other half of the blueberries (50) were dipped in DI water for 2 min as blank control. Then the corresponding blueberries were separately taken out, placed in two different Petri dishes, and allowed to air dry for 2 h. Second, treatment and blank control blueberries were respectively stored in two plastic cups (32 oz) with closed caps and incubated at room temperature for 10 days. The emergence of adults was then subsequently assessed. The developments of larvae and pupae were further inspected by dissection of the treatment and blank control berries. Each treatment and blank control was repeated three times.
# [7] = system: L. dispar larvae; assay: Larvicidal toxicity, treated filter paper in Petri dish; type: in vivo; details: for LC50 (95% CL): 1st stage larvae, 24 hr
# Description: Toxicities of MB and some compounds of formula 1 on L. dispar larvae: The bioassays were carried out in plastic Petri dish loaded with filter paper, following a published procedure (Nielsen 2008). 600 μL acetone solution of one derivative with different concentrations was loaded onto the filter paper (90 mm diameter) evenly, and the filter paper was dried for 2 min and then put into the bottom of Petri dish. 10 L. dispar larvae were put onto the Petri dish and covered with a lid. 30 larvae were used for each amount. The mortality was assessed after 24 hr.
# [8] = system: Plutella xylostella eggs; assay: Ovicidal toxicity, direct spray on eggs; type: in vivo; details: hatchability after 10 days; 0.05% and 0.1% concentrations (FIG. 3)
# From the text: as §1
# [9] = system: H. halys nymphs; details: 24 hr, copied from previous research, cited from earlier work
# [10] = 24 h, colony 1, 24 h, read-out: LC50
# [11] = 24 h, colony 2, 24 h, read-out: LC50
# [12] = 24 h, colony 3, 24 h, read-out: LC50
# [13] = 24 h, dosage 1.43 μg/ml, 24 h, read-out: mean mortality
# [14] = 24 h, mean over colonies, 24 h, read-out: mean LC50 value
SMILES,LC50 (95% CL) [1],first order evaporation rate constant k (exponent of fitted curve) [2],fumigant toxicity against S. invicta (in words) [3],LC50 (95% CL) ([4]; 2nd stage nymphs),"LD50 ([5]; colony 1, 24 h) [μg/ant]","LD50 ([5]; colony 2, 24 h) [μg/ant]","LD50 ([5]; colony 3, 24 h) [μg/ant]",increase of mean mortality compared with MB [5] [times],mean mortality [5] [%],Adults [6],Larvae [6],Pupae [6],LC50 (95% CL) [7],ovicidal toxicity against P. xylostella eggs (in words) [8],"LC50 [3, 10] [µg/mL]","LC50 [3, 11] [µg/mL]","LC50 [3, 12] [µg/mL]","mortality at 1.43 µg/mL [3, 13] [%]","LC50 [3, 14] [µg/mL]",further results
"COC(=O)c1ccccc1OC [M2MOB, methyl 2-methoxybenzoate]",0.011 (0.006-0.015) mg/cm^2,8E-04,significantly reduced,1.530 (1.309-1.951) μL/vial,67.73,96.43,78.34,7,55.74,0,0,0,0.230 (0.170-0.294) mg/cm^2,–,–,–,–,–,–,decreased toxicities compared with MB ([7]; from LC50 values): 50%
"CCCCCOC(=O)c1ccccc1 [nPeB, n-pentyl benzoate]",–,–,–,–,35.97,41.16,28.64,13,99.26,36.3(3.9),5.3(0.9),37.7(6.7),0.165 (0.118-0.208) mg/cm^2,comparable toxicity comparing with MB,–,–,–,–,–,"toxicity against H. halys nymphs (in words) ([4]; in vivo): did not show toxicities; contact toxicity against S. invicta (in words) ([5]; in vivo): comparable results; also recorded: potent contact toxicities; insecticidal toxicity against D. suzukii (in words) ([6]; 1% concentration on 4 days pre-infested blueberries, 10 days incubation): did not show any insecticidal activities"
"COC(=O)c1ccccc1 [MB, methyl benzoate]",0.020 (0.012-0.026) mg/cm^2,0.162,powerful fumigant toxicities,–,149.39,93.65,128.45,–,7.67,0,0,0,0.114 (0.091-0.134) mg/cm^2,–,0.77,0.66,0.82,~100,0.75,"LC50 (95% CL) ([9]; 1st stage nymphs): 1.03 (0.93-1.10) μL/vial; LC50 (95% CL) ([9]; 2nd stage nymphs): 1.01 (0.86-1.12) μL/vial; LC50 (95% CL) ([9]; 3rd stage nymphs): 1.23 (1.12-1.33) μL/vial; LC50 (95% CL) ([9]; 4th stage nymphs): 2.39 (2.19-2.60) μL/vial; LC50 (95% CL) ([9]; 5th stage nymphs): 1.77 (1.60-1.93) μL/vial; mean mortality ([3]; dosage 1.43 μg/ml, 24 h): 100%"
"C=COC(=O)c1ccccc1 [VB, vinyl benzoate]",0.017 (0.010-0.024) mg/cm^2,–,powerful fumigant toxicities,1.131 (0.757-1.337) μL/vial,–,–,–,–,–,0,0,0,0.065 (0.059-0.071) mg/cm^2,highest toxicity,–,–,–,–,–,"LC50 ([3]; 24 h, colony 1, 24 h): 0.95 µg/mL; LC50 ([3]; 24 h, colony 2, 24 h): 0.77 µg/mL; LC50 ([3]; 24 h, colony 3, 24 h): 0.96 µg/mL; LC50 ([3]; 24 h, read-out: mean LC50 value, mean over colonies, 24 h): 0.89 µg/mL; mortality at 1.43 µg/mL ([3]; 24 h, read-out: mean mortality, dosage 1.43 μg/ml, 24 h): ~100%; larvicidal toxicity against L. dispar (in words) ([7]; in vivo): highest larvicidal toxicity; times more toxic than commercial pesticide acetamiprid ([7]; ratio of LC50 values): 3.4 times; times more toxic than commercial pesticide pyriproxyfen ([7]; ratio of LC50 values): 1.3 times"
"CCOC(=O)c1ccccc1 [EB, ethyl benzoate]",0.014 (0.010-0.019) mg/cm^2,–,–,–,164.32,129.62,126.53,–,–,0,0,0,0.115 (0.107-0.123) mg/cm^2,–,0.89,0.76,1.14,~100,0.93,LC50 (95% CL) ([4]; 3rd stage nymphs): 1.604 (1.468-1.756) μL/vial
